PubChem BioAssay (NCI)
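Protocol summary: plate cells (96-well), add compound at 5 concentrations, incubate 48 h, interpolate endpoints linearly. GI50 marks 50% less growth. At the TGI there is no net growth.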 Where a SMILES comes first, the peptide text is derived from it. [ ]: non-standard residue; d: D form. The star is where a group is joined. NMeF = CN[CH](Cc1ccccc1)C(=O)O; NMeV = CN[CH](C(=O)O)C(C)C; Boc = CC(C)(C)OC(=O)*

Experiments:
Assay in all cases: NCI anticancer screen, dose series, 48 h
786-0 renal = system: 786-0 renal
M14 melanoma = system: M14 melanoma
NCI-H226 lung = system: NCI-H226 lung
NCI-H460 lung = system: NCI-H460 lung
OVCAR-8 ovarian = system: OVCAR-8 ovarian
SF-268 CNS = system: SF-268 CNS
SK-MEL-28 melanoma = system: SK-MEL-28 melanoma
SW-620 colon = system: SW-620 colon
MCF7 breast = system: MCF7 breast
MDA-MB-231 breast = system: MDA-MB-231 breast

SMILES | TGI (786-0 renal) | TGI (M14 melanoma) | TGI (NCI-H226 lung) | TGI (NCI-H460 lung) | TGI (OVCAR-8 ovarian) | TGI (SF-268 CNS) | TGI (SK-MEL-28 melanoma) | TGI (SW-620 colon) | GI50 (786-0 renal) | GI50 (M14 melanoma) | GI50 (MCF7 breast) | TGI (MCF7 breast) | GI50 (MDA-MB-231 breast) | TGI (MDA-MB-231 breast) | GI50 (NCI-H226 lung) | GI50 (OVCAR-8 ovarian) | GI50 (SK-MEL-28 melanoma) | GI50 (NCI-H460 lung) | GI50 (SF-268 CNS) | GI50 (SW-620 colon)
Cc1nc(N)sc1C(=O)/C=C\c1ccc2c(c1)OCO2 | > 100 µM | > 100 µM | > 100 µM | > 100 µM | > 100 µM | > 100 µM | > 100 µM | > 100 µM |  |  |  |  |  |  |  |  |  |  |  | 
COc1cc(/C=C/c2cc(/C=C/c3ccc(O)c(OC)c3)n(C(=O)Nc3ccc(F)c(Cl)c3)n2)ccc1O | 1.71 µM | 1.59 µM | 2.3 µM |  | 3.09 µM |  | 3.92 µM |  | 0.52 µM | 0.114 µM | 0.185 µM | 1.51 µM | 0.495 µM | 3.85 µM | 0.491 µM | 0.496 µM | 0.52 µM |  |  | 
CCOc1ccccc1NC(=O)CC(C(=O)OC)C(=O)C(=O)OC (stereo not drawn) | > 100 µM | > 100 µM | > 100 µM | > 100 µM | > 100 µM | > 100 µM | > 100 µM | > 100 µM |  |  |  |  |  |  |  |  |  |  |  | 
CC(C)C(NC(=O)OC(C)(C)C)C(=O)N(C)C(Cc1ccccc1)C(=O)N(C)C(C(=O)O)C(C)C (stereo not drawn) (Boc-Val-[NMeF]-[NMeV]-OH; configuration not given here) | > 100 µM | > 100 µM | > 100 µM | > 100 µM | > 100 µM | > 100 µM | > 100 µM | > 100 µM |  |  |  |  |  |  |  |  |  |  |  | 
COc1cc2c(cc1OC)C(CC(=O)NN=C(C)C)NCC2 (stereo not drawn) | > 100 µM | > 100 µM | > 100 µM | > 100 µM | > 100 µM | > 100 µM | > 100 µM | > 100 µM |  |  |  |  |  |  |  |  |  |  |  | 
Cn1c(=O)c(C(c2ccc([N+](=O)[O-])cc2)c2c(O)c3ccccc3n(C)c2=O)cc2ccccc21 (stereo not drawn) | > 100 µM | > 100 µM | 64 µM | > 100 µM | > 100 µM | > 100 µM | > 100 µM | > 100 µM |  |  |  |  |  |  |  |  |  |  |  | 
Cc1cn(C2CC(O)C(CO)O2)c(=O)n2nnnc12 (stereo not drawn) | > 100 µM | > 100 µM | > 100 µM | > 100 µM | > 100 µM | > 100 µM | > 100 µM | > 100 µM |  |  |  |  |  |  |  |  |  |  |  | 
Cc1cc(C(=O)Nc2ncc(Cc3cccc(C(F)(F)F)c3)s2)c2ccccc2n1 | > 100 µM | > 100 µM |  | > 100 µM | > 100 µM | > 100 µM | > 100 µM | > 100 µM | 2.84 µM | 0.185 µM | 0.579 µM | > 100 µM |  |  |  | 3.49 µM | 0.79 µM | 1.33 µM | 2.63 µM | 1.21 µM
NC(N)=N/N=C(\c1nc2ccc([N+](=O)[O-])cc2[nH]c1=O)C(O)c1ccc([N+](=O)[O-])cc1 (stereo not drawn) | > 100 µM | > 100 µM | > 100 µM | > 100 µM | > 100 µM | > 100 µM | > 100 µM | > 100 µM |  |  |  |  |  |  |  |  |  |  |  | 
COC1(OC)C2(Cl)C(Cl)=C(Cl)C1(Cl)C1C=CC=CC12 (stereo not drawn) | > 100 µM | > 100 µM | > 100 µM | > 100 µM | > 100 µM | > 100 µM | > 100 µM | > 100 µM |  |  |  |  |  |  |  |  |  |  |  | 
COc1ccccc1CCc1cc(OC)c(OC)c(OC)c1 | > 100 µM | > 100 µM | > 100 µM | > 100 µM | > 100 µM | > 100 µM | > 100 µM | > 100 µM |  |  |  |  |  |  |  |  |  |  |  | 
Cc1cc(Cl)ccc1N=C1NC(=O)C(CC(=O)Nc2ccc([N+](=O)[O-])cc2[N+](=O)[O-])S1 (stereo not drawn) | > 100 µM | 59.8 µM |  | 84.9 µM | > 100 µM | > 100 µM | > 100 µM | > 100 µM |  |  |  |  |  |  |  |  |  |  |  | 
COc1ccc(C(=O)C(C(=O)CCC(=O)Nc2cccc(Cl)c2)c2ccc(OC)cc2)cc1 (stereo not drawn) | > 100 µM | > 100 µM | > 100 µM | > 100 µM | > 100 µM | > 100 µM | > 100 µM | > 100 µM |  |  |  |  |  |  |  |  |  |  |  | 
Cc1cccc(NC(=O)/C(=N\NC(C)(C)C)C2NC(=S)NC2=O)c1C (stereo not drawn) | > 100 µM | > 100 µM |  | > 100 µM | > 100 µM |  |  | > 100 µM |  |  |  |  |  |  |  |  |  |  |  | 
CC(C)(C)c1cc(C(C)(C)C)cc(S(=O)(=O)Nc2cc3ccccc3cc2C(=O)NCCN)c1 | 3.09 µM | 3.42 µM | 4.28 µM | 4.12 µM | 4.87 µM | 3.35 µM | 3.64 µM | 3.95 µM | 1.67 µM | 1.71 µM | 1.53 µM | 2.95 µM |  |  | 2.16 µM | 2.2 µM | 1.87 µM | 2.1 µM | 1.68 µM | 1.93 µM
COC(=O)C1=C(C)N(NC(=O)OC(C)(C)C)C(=O)C1=P(c1ccccc1)(c1ccccc1)c1ccccc1 | > 100 µM | > 100 µM | > 100 µM | > 100 µM | > 100 µM | > 100 µM |  | > 100 µM |  |  |  |  |  |  |  |  |  |  |  | 
CC(C)(C)c1ccc2c(c1)S(=O)(=O)Nc1ccccc1NS(=O)(=O)c1cc(C(C)(C)C)ccc1OCCOCCOCCO2 | > 100 µM | > 100 µM | > 100 µM | > 100 µM | > 100 µM | > 100 µM | > 100 µM | > 100 µM |  |  |  |  |  |  |  |  |  |  |  | 
CN1c2ccc(Cl)cc2C(=O)NC1c1ccc([N+](=O)[O-])s1 (stereo not drawn) | 30.8 µM | 32.5 µM |  | 36.4 µM | 38.9 µM | 21.5 µM | 43.7 µM | > 100 µM |  |  |  | 44.6 µM |  | 33.1 µM |  |  |  |  |  | 
COC1=C(C)C(=O)c2c(c(COC(N)=O)c3n2CC2C3N2C)C1=O (stereo not drawn) | 0.102 µM | 0.0641 µM | 0.337 µM |  | 0.216 µM | 0.6 µM | 0.173 µM | 0.145 µM |  |  |  | < 0.027 µM |  | 0.409 µM |  |  |  |  |  | 
CC(C)(C)c1cc(Br)c(O)c(CN(Cc2cc(C(C)(C)C)cc(Br)c2O)C2CCCCC2)c1 | 27.7 µM | 25.5 µM | 29.1 µM |  | 28.3 µM | 26.4 µM | 28.9 µM | 25.8 µM |  |  |  | 26.8 µM |  | 28.2 µM |  |  |  |  |  | 
CC1(C)SCc2nc3ncccc3n21 | > 100 µM | > 100 µM | > 100 µM | > 100 µM | > 100 µM | > 100 µM | > 100 µM | > 100 µM |  |  |  |  |  |  |  |  |  |  |  | 
COC(=O)/C(=N\Nc1nnc(C)n1N)C(C#N)c1ccc(Cl)cc1 (stereo not drawn) | > 100 µM | > 100 µM | > 100 µM | > 100 µM | > 100 µM | > 100 µM | > 100 µM | > 100 µM |  |  |  |  |  |  |  |  |  |  |  | 
